Test results: ChEMBL document CHEMBL1153803, “Parallel synthesis of chiral pentaamines and pyrrolidine containing bis-heterocyclic libraries. Multiple scaffolds with multiple building blocks: a double diversity for the identification of new antitubercular compounds” (Bioorg Med Chem Lett, 2009)
Converted amounts (≈) assume the structure as drawn.

Columns and labels:
[1] = system: Mycobacterium tuberculosis; assay: Antimicrobial activity against Mycobacterium tuberculosis H37Rv ATCC 27294 at 6.25 ug/mL by broth microdilution assay; assay type: functional
[2] = system: Mycobacterium tuberculosis; assay: Antimicrobial activity against Mycobacterium tuberculosis H37Rv ATCC 27294 by microplate Almar blue assay; assay type: functional
[3] = system: Vero; assay: Cytotoxicity against african green monkey Vero cells at after 72 hrs by MTT assay; assay type: cell-based, Chlorocebus sabaeus
[4] = Selective index, the ratio of IC50 in the african green monkey Vero cells to the MIC to Mycobacterium tuberculosis H37Rv ATCC 27294; assay type: functional
[5] = Mycobacterium tuberculosis, H37Rv ATCC 27294, read-out: MIC
[6] = Chlorocebus sabaeus, Vero, 72 h, read-out: IC50

Compound	inhibition at 6.25 µg/mL [1]	MIC [2, 5]	IC50 [3, 6]	Selectivity Index [4]	MIC [2]	IC50 ([3]; vero)
N=C1NC[C@H](Cc2ccccc2)N1C[C@@H]1CCCN1C[C@H](Cc1ccccc1)N1C[C@H](Cc2ccccc2)N(CC23CC4CC(CC(C4)C2)C3)C1=N	91%	3.9 µg/mL (≈ 5.59 µM)				
N=C1NC[C@H](Cc2ccccc2)N1CC1CCCN1C[C@H](Cc1ccccc1)N1C[C@H](Cc2ccccc2)N(CC2CCCC2)C1=N (stereo partly drawn)	93%	7.8 µg/mL (≈ 12.3 µM)	33.5 µg/mL (≈ 53.1 µM)	4.3		
CCC(C)CN1CCN([C@@H](Cc2ccccc2)CN2CCCC2CN2CCNC[C@@H]2Cc2ccccc2)C[C@@H]1Cc1ccccc1 (stereo partly drawn)	97%	3.9 µg/mL (≈ 6.27 µM)	0.7 µg/mL (≈ 1.13 µM)	0.18		
c1ccc(CCN2CCN([C@@H](Cc3ccccc3)CN3CCCC3CN3CCNC[C@@H]3Cc3ccccc3)C[C@H]2CC2CCCCC2)cc1 (stereo partly drawn)	98%	3.9 µg/mL (≈ 5.89 µM)	0.97 µg/mL (≈ 1.47 µM)	0.25		
CC(C)(C)C1CCC(CN2C(=N)N([C@@H](Cc3ccccc3)CN3CCCC3CN3C(=N)NC[C@@H]3Cc3ccccc3)C[C@@H]2Cc2ccccc2)CC1 (stereo partly drawn)	94%	7.8 µg/mL (≈ 11.1 µM)	15.2 µg/mL (≈ 21.7 µM)	1.95		
c1ccc(CCN2CCN([C@@H](CC3CCCCC3)CN3CCCC3CN3CCNC[C@@H]3Cc3ccccc3)C[C@@H]2Cc2ccccc2)cc1 (stereo partly drawn)	100%	2 µg/mL (≈ 3.02 µM)	0.99 µg/mL (≈ 1.5 µM)	0.5		
c1ccc(CCN2CCN([C@@H](Cc3ccccc3)CN3CCCC3CN3CCNC[C@@H]3Cc3ccccc3)C[C@@H]2CC2CCCCC2)cc1 (stereo partly drawn)	99%	3.9 µg/mL (≈ 5.89 µM)	0.82 µg/mL (≈ 1.24 µM)	0.21		
CCC(C)CN1C(=N)N([C@@H](Cc2ccccc2)CN2CCCC2CN2C(=N)NC[C@@H]2Cc2ccccc2)C[C@@H]1Cc1ccccc1 (stereo partly drawn)	90%	7.8 µg/mL (≈ 12.6 µM)	36.8 µg/mL (≈ 59.3 µM)	4.7		
NC[C@H](Cc1ccccc1)NC[C@@H]1CCCN1C[C@H](Cc1ccccc1)NC[C@H](Cc1ccccc1)NCCC1CC2CCC1C2 (stereo partly drawn)		3.13 µg/mL (≈ 5.03 µM)	1.03 µg/mL (≈ 1.66 µM)			
c1ccc(CCN2CCN([C@@H](Cc3ccc4ccccc4c3)CN3CCCC3CN3CCNC[C@@H]3Cc3ccccc3)C[C@@H]2Cc2ccccc2)cc1 (stereo partly drawn)	100%	3.9 µg/mL (≈ 5.52 µM)	1 µg/mL (≈ 1.42 µM)	0.26		
CCOc1ccc(CCN2CCN([C@@H](Cc3ccccc3)CN3CCCC3CN3CCNC[C@@H]3Cc3ccccc3)C[C@@H]2Cc2ccccc2)cc1 (stereo partly drawn)	98%	3.9 µg/mL (≈ 5.57 µM)	1.03 µg/mL (≈ 1.47 µM)	0.26		
c1ccc(C[C@H]2CNCCN2CC2CCCN2C[C@H](Cc2ccccc2)N2CCN(CC3CCCCC3)[C@@H](Cc3ccccc3)C2)cc1 (stereo partly drawn)	100%	3.9 µg/mL (≈ 6.02 µM)	0.71 µg/mL (≈ 1.1 µM)	0.18		
NC[C@H](Cc1ccccc1)NC[C@@H]1CCCN1C[C@H](Cc1ccccc1)NC[C@H](Cc1ccccc1)NCCc1ccc(-c2ccccc2)cc1		> 6.25 µg/mL				
CC1CCC(CN2CCN([C@@H](Cc3ccccc3)CN3CCCC3CN3CCNC[C@@H]3Cc3ccccc3)C[C@@H]2Cc2ccccc2)CC1 (stereo partly drawn)	99%	6.25 µg/mL (≈ 9.44 µM)	1.39 µg/mL (≈ 2.1 µM)	0.21	3.9 µg/mL (≈ 5.89 µM)	0.82 µg/mL (≈ 1.24 µM)
c1ccc(C[C@H]2CNCCN2CC2CCCN2C[C@H](Cc2ccccc2)N2CCN(CC3(c4ccccc4)CC3)[C@@H](Cc3ccccc3)C2)cc1 (stereo partly drawn)	99%	3.9 µg/mL (≈ 5.72 µM)	0.94 µg/mL (≈ 1.38 µM)	0.24		
CCCC[C@@H](CN1CCCC1CN1CCNC[C@@H]1Cc1ccccc1)N1CCN(CCc2ccccc2)[C@@H](Cc2ccccc2)C1 (stereo partly drawn)	100%	3.9 µg/mL (≈ 6.27 µM)	1 µg/mL (≈ 1.61 µM)	0.26		
FC(F)(F)c1cccc(CCN2CCN([C@@H](Cc3ccccc3)CN3CCCC3CN3CCNC[C@@H]3Cc3ccccc3)C[C@@H]2Cc2ccccc2)c1 (stereo partly drawn)	99%	3.9 µg/mL (≈ 5.39 µM)	1.12 µg/mL (≈ 1.55 µM)	0.29		
Clc1ccc(CCN2CCN([C@@H](Cc3ccccc3)CN3CCCC3CN3CCNC[C@@H]3Cc3ccccc3)C[C@@H]2Cc2ccccc2)cc1Cl (stereo partly drawn)	99%	3.9 µg/mL (≈ 5.38 µM)	1.07 µg/mL (≈ 1.48 µM)	0.27		
COc1ccc(CCN2CCN([C@@H](Cc3ccccc3)CN3CCCC3CN3CCNC[C@@H]3Cc3ccccc3)C[C@@H]2Cc2ccccc2)cc1 (stereo partly drawn)	99%	3.9 µg/mL (≈ 5.69 µM)	0.33 µg/mL (≈ 0.481 µM)	0.08		
c1ccc(CCN2CCN([C@@H](Cc3ccccc3)CN3CCCC3CN3CCNC[C@H]3Cc3ccccc3)C[C@@H]2Cc2ccccc2)cc1 (stereo partly drawn)	99%	3.9 µg/mL (≈ 5.95 µM)	0.86 µg/mL (≈ 1.31 µM)	0.22		
CC(C)CCCN1CCN([C@@H](Cc2ccccc2)CN2CCCC2CN2CCNC[C@@H]2Cc2ccccc2)C[C@@H]1Cc1ccccc1 (stereo partly drawn)	99%	2 µg/mL (≈ 3.14 µM)	0.89 µg/mL (≈ 1.4 µM)	0.45		
OCC(CN1CCN([C@@H](Cc2ccccc2)CN2CCCC2CN2CCNC[C@@H]2Cc2ccccc2)C[C@@H]1Cc1ccccc1)c1ccccc1 (stereo partly drawn)	99%	20 µg/mL (≈ 29.2 µM)	1.08 µg/mL (≈ 1.57 µM)			

Compound	inhibition at 6.25 µg/mL [1]	MIC [2, 5]	IC50 [3, 6]	Selectivity Index [4]	MIC [2]	IC50 ([3]; vero)
c1ccc(C[C@H]2CNCCN2CC2CCCN2C[C@H](Cc2ccccc2)N2CCN(CCC3CC4CCC3C4)[C@@H](Cc3ccccc3)C2)cc1 (stereo partly drawn)	97%	3.9 µg/mL (≈ 5.79 µM)	0.87 µg/mL (≈ 1.29 µM)	0.22		
c1ccc(C[C@H]2CNCCN2CC2CCCN2C[C@H](Cc2ccccc2)N2CCN(CCC3CCCCC3)[C@@H](Cc3ccccc3)C2)cc1 (stereo partly drawn)	99%	3.9 µg/mL (≈ 5.89 µM)	0.62 µg/mL (≈ 0.937 µM)	0.16		
NC[C@H](Cc1ccccc1)NC[C@@H]1CCCN1C[C@H](Cc1ccccc1)NC[C@H](Cc1ccccc1)NCC1CCCC1		6.25 µg/mL (≈ 10.7 µM)				
S=C1NC[C@H](Cc2ccccc2)N1CC1CCCN1C[C@H](Cc1ccccc1)N1C[C@H](Cc2ccccc2)N(CC2CCCCC2)C1=S (stereo partly drawn)	97%	3.9 µg/mL (≈ 5.73 µM)	8.47 µg/mL (≈ 12.5 µM)	2.2		
c1ccc(C[C@H]2CNCCN2CC2CCCN2C[C@H](Cc2ccccc2)N2CCN(CC34CC5CC(CC(C5)C3)C4)[C@@H](Cc3ccccc3)C2)cc1 (stereo partly drawn)	97%	2 µg/mL (≈ 2.86 µM)	0.97 µg/mL (≈ 1.39 µM)	0.49		
NC[C@H](Cc1ccccc1)NC[C@@H]1CCCN1C[C@H](Cc1ccccc1)NC[C@H](Cc1ccccc1)NCCC1CCCCC1		6.25 µg/mL (≈ 10.2 µM)	1.05 µg/mL (≈ 1.72 µM)			
Oc1ccc(CCN2CCN([C@@H](Cc3ccccc3)CN3CCCC3CN3CCNC[C@@H]3Cc3ccccc3)C[C@@H]2Cc2ccccc2)cc1 (stereo partly drawn)	99%	3.9 µg/mL (≈ 5.8 µM)	1.11 µg/mL (≈ 1.65 µM)	0.28		
S=C1NC[C@H](Cc2ccccc2)N1C[C@@H]1CCCN1C[C@H](Cc1ccccc1)N1C[C@H](Cc2ccccc2)N(CC23CC4CC(CC(C4)C2)C3)C1=S	98%	6.25 µg/mL (≈ 8.54 µM)				
c1ccc(C[C@H]2CNCCN2CC2CCCN2C[C@H](Cc2ccccc2)N2CCN(CCCCC3CCCCC3)[C@@H](Cc3ccccc3)C2)cc1 (stereo partly drawn)	99%	2 µg/mL (≈ 2.9 µM)	1 µg/mL (≈ 1.45 µM)	0.5		
N=C1NC[C@H](Cc2ccccc2)N1CC1CCCN1C[C@H](Cc1ccccc1)N1C[C@H](Cc2ccccc2)N(CCC2CCCCC2)C1=N (stereo partly drawn)	94%	3.9 µg/mL (≈ 5.91 µM)	13.9 µg/mL (≈ 21.1 µM)	3.8		
CCC(C)CCN1CCN([C@@H](Cc2ccccc2)CN2CCCC2CN2CCNC[C@@H]2Cc2ccccc2)C[C@@H]1Cc1ccccc1 (stereo partly drawn)	96%	3.9 µg/mL (≈ 6.13 µM)	1 µg/mL (≈ 1.57 µM)	0.26		
NC[C@H](Cc1ccc2ccccc2c1)NC[C@@H]1CCCN1C[C@H](Cc1ccccc1)NC[C@H](Cc1ccccc1)NCCc1ccccc1		6.25 µg/mL (≈ 9.56 µM)	4.23 µg/mL (≈ 6.47 µM)			
c1ccc(CCN2CCN([C@H](CC3CCCCC3)CN3CCCC3CN3CCNC[C@@H]3Cc3ccccc3)C[C@@H]2Cc2ccccc2)cc1 (stereo partly drawn)	98%	3.9 µg/mL (≈ 5.89 µM)	0.92 µg/mL (≈ 1.39 µM)	0.24		
c1ccc(C[C@H]2CNCCN2CC2CCCN2C[C@H](Cc2ccccc2)N2CCN(CCCC3CCCC3)[C@@H](Cc3ccccc3)C2)cc1 (stereo partly drawn)	100%	3.9 µg/mL (≈ 5.89 µM)	0.42 µg/mL (≈ 0.634 µM)	0.11		
CCC(C)CCN1C(=N)N([C@@H](Cc2ccccc2)CN2CCCC2CN2C(=N)NC[C@@H]2Cc2ccccc2)C[C@@H]1Cc1ccccc1 (stereo partly drawn)	91%	7.8 µg/mL (≈ 12.3 µM)	32.3 µg/mL (≈ 50.9 µM)	4.1		
NC[C@H](Cc1ccccc1)NC[C@@H]1CCCN1C[C@H](Cc1ccccc1)NC[C@H](Cc1ccccc1)NCCC12CC3CC(CC(C3)C1)C2		3.13 µg/mL (≈ 4.73 µM)	1.1 µg/mL (≈ 1.66 µM)			
c1ccc(C[C@H]2CNCCN2C[C@@H]2CCCN2C[C@H](Cc2ccccc2)N2CCN(CC34CC5CC(CC(C5)C3)C4)[C@@H](Cc3ccccc3)C2)cc1	99%	3.9 µg/mL (≈ 5.57 µM)				
CC(C)[C@H]1CNC(=S)N1CC1CCCN1C[C@H](Cc1ccccc1)N1C[C@H](Cc2ccccc2)N(CCc2ccccc2)C1=S (stereo partly drawn)	90%					
CCCCCCCN[C@H](CN[C@@H](Cc1ccccc1)CN1CCC[C@H]1CN[C@H](CN)Cc1ccccc1)Cc1ccccc1		> 6.25 µg/mL				
NC[C@H](Cc1ccccc1)NC[C@@H]1CCCN1C[C@H](Cc1ccccc1)NC[C@H](Cc1ccccc1)NCC12CC3CC(CC(C3)C1)C2		6.25 µg/mL (≈ 9.65 µM)				
NC[C@H](Cc1ccccc1)NC[C@@H]1CCCN1C[C@H](Cc1ccccc1)NC[C@H](Cc1ccccc1)NCCCC1CCCC1		6.25 µg/mL (≈ 10.2 µM)				
NC[C@H](Cc1ccccc1)NC[C@@H]1CCCN1C[C@H](Cc1ccccc1)NC[C@H](Cc1ccccc1)NCCCC1CCCCC1	99%	3.13 µg/mL (≈ 5.02 µM)				
